Values after ≈ are worked out from the molar mass of the structure shown. Values joined by “and” are separate entries in the source; they are usually repeats but may differ in a detail not shown here. Equal entries are not always repeated. Where two headings read alike, the source gives them in different places.

On data set [1], the source says:
(§1) Tryptophan emission is a sensitive indicator for the physical environment surrounding the amino acid (˜330 nm in a folded or hydrophobic environment; ˜355 nm in an unfolded or aqueous environment).

Description in data set [2]: Sequestration of tryptophan (Trp) can be observed through blue shift in wavelength of photon emission after excitation at 290 nm. […] (c) overlay of emission spectra.
as §1
This is another data set of the same source.

The nature of data set [3]: ANTS/DPX leakage from lipid vesicles. Particulars: incubated with lipid vesicles for 1 hour. The protocol:
Both delta-haemolysin and PSMdelta were evaluated for their ability to perforate synthetic lipid vesicles. Lipid vesicles were made with a 2:1 molar ratio of POPC to POPG. The lipid vesicles, extruded through a 200 nm polycarbonate film, encapsulated the fluorescent dye, ANTS, and a quencher: DPX. Upon membrane perforation, ANTS/DPX are released and separated, allowing ANTS to fluoresce at 530 nm.

The test system of data set [4] is GAS membranes. As to the kind of experiment: SEM analysis of GAS membranes. Format: cell-based, Group A Streptococcus. Particulars: 16 μM peptide.
Data set [5] deals with GAS.

On to `CC[C@H](C)[C@H](NC(=O)[C@H](Cc1c[nH]c2ccccc12)NC(=O)[C@H](CCCCN)NC(=O)[C@@H](NC(=O)[C@H](CC(C)C)NC(=O)[C@H](CC(=O)O)NC(=O)CNC(=O)[C@@H](NC(=O)[C@@H](NC(=O)[C@H](CO)NC(=O)[C@@H](NC(=O)[C@@H](NC(=O)[C@H](CC(=O)O)NC(=O)[C@H](C)NC(=O)[C@H](C)NC(=O)[C@@H](N)CCSC)[C@@H](C)CC)[C@@H](C)CC)[C@@H](C)O)[C@@H](C)CC)C(C)C)C(=O)N[C@H](C(=O)N[C@@H](CC(=O)O)C(=O)N[C@H](C(=O)N[C@H](C(=O)N[C@@H](CC(N)=O)C(=O)N[C@@H](CCCCN)C(=O)N[C@@H](Cc1ccccc1)C(=O)N[C@@H](CCCCN)C(=O)N[C@@H](CCCCN)C(=O)O)C(C)C)[C@@H](C)O)[C@@H](C)CC` [delta-haemolysin], for which the “deltaG^1(H2O)” value in data set [1] (5 μM peptide) is 5.98 kJ/mol; in data set [1] (25 μM peptide) it was 6.57 kJ/mol; in data set [1] (25 μM peptide, figure legend), 6.57 kJ/mol. The “midpoint of the unfolding curve” value in data set [1] (5 μM peptide) was 2.14 M urea; in data set [1] (25 μM peptide), 3.20 M urea and 3.2 M urea. Besides, the tryptophan emission was found to be 339 nm in data set [2] (before incubation with lipid vesicles), 332 nm in data set [2] (incubation with lipid vesicles) and 335 nm in data set [2] (lipid vesicles plus urea). Also, the “ANTS fluorescence at 530 nm (vesicle leakage)” value in data set [3] is “Dose-dependent fluorescence”. Further, the “membrane effect seen by SEM” value in data set [4] is “membrane blebbing and disruption”. The MBC (usually the lowest tested concentration that kills the bacteria rather than only halting them) in data set [5] was 16 µM (≈ 45.1 µg/mL). Further, the minimum inhibitory concentration (MIC) (usually the lowest concentration that inhibits growth of the organism) in data set [5] was determined as 8 µM (≈ 22.6 µg/mL); in data set [5] (listed as Synthetic delta-haemolysin) it was 16 µM (≈ 45.1 µg/mL). Besides, in data set [5] (with 2 μM PSMdelta), the “MIC of delta-haemolysin in the presence of PSMdelta” value was 4 µM.

As to CRAMP [reference compound], the “membrane effect seen by SEM” value in data set [4] is listed as “Membrane disruption”.

With “MSIVSTIIEVVKTIVDIVKKFKK (listed as Staphylococcus epidermidis) [PSMdelta, peptide identified in S. epidermidis fraction 37, tested as synthetic peptide]”, in data set [3], the “ANTS fluorescence at 530 nm (vesicle leakage)” value is on record as “Dose-dependent fluorescence”.
